# What was measured:
# mTOR pathway = experiment: phospho-mTOR in mammary tissue; format: in vivo, mice; settings: NR-supplemented mothers
# Description: FIGS. 13A-D. NR boosts prolactin circulation and mammary biosynthetic pathways for protein, fat and carbohydrate. FIG. 13A. Prolactin levels in plasma from dam on NC or NR chow. FIG. 13B. mTOR pathway is activated in NR-supplemented mammary tissue. FIG. 13C. Genes involved in lipid biosynthesis are activated in NR-supplemented mammary tissue. FIG. 13D. Genes involved in lactose synthesis pathway are activated in NR-supplemented mammary tissue. […] In addition, the size of the mammary tissue itself is greater in NR-supplemented mothers than in non-supplemented mothers (FIG. 14A).
# [1] = Open field test of offspring; format: in vivo, mice
# Experimental: The order of the bars from left to right are: males of normal chow (NC) mothers (white with light grey outline), followed by males of NR-supplemented mothers (filled light grey), followed by females of NC mothers (white with dark grey outline), followed by females of NR-supplemented mothers (filled dark grey). […] These adults were treated identically ever since weaning. The only difference is whether the mother was NR-supplemented for 21 days. They are faster and more adventurous. The order of the bars from left to right are: males of normal chow (NC) mothers (white with light grey outline), followed by males of NR-supplemented mothers (filled light grey), followed by females of NC mothers (white with dark grey outline), followed by females of NR-supplemented mothers (filled dark grey). At 15 days of age, it was observed that the offspring of NR-supplemented mothers were more physically active. In this experiment, the physical activity of male and female offspring of mothers supplemented or not with NR at 15 days of age was quantified. […] At 21 days, the offspring were removed from their mothers and put on normal chow […]. While offspring of NR could have been put on NR chow, we aimed to determine if the 21 day intervention to their mothers was sufficient for a lasting effect on their neurocognitive and/or physical development.
# [2] = Post-partum NR supplementation: milk volume and macronutrient density; format: in vivo, mice
# Experimental: FIGS. 8A-C. Milk from NR-supplemented mothers had normal macronutrient density. Oxytocin-induced milk collection at indicated days. Protein (FIG. 8A), carbohydrate (FIG. 8B) and lipid concentration (FIG. 8C) was not changed. A series of in vivo murine experiments were performed to evaluate the effects of nicotinamide riboside on milk production. […] As shown in FIGS. 8A-C, the concentration of protein, carbohydrate and fat in the milk of NR-supplemented mothers was normal. Because there is approximately 2-fold more milk produced by NR-supplemented mothers, NR-supplemented mothers transmit more calories to their offspring, which thereby assists maternal weight loss and neonatal development. In FIG. 9A, the concentration of NAD precursor vitamins in the milk from control mothers and NR-supplemented mothers was determined. […] Oral NR was labeled with heavy atoms in the nicotinamide and ribose moieties of NR and this was provided to lactating mothers by gavage.
# [3] = Maternal weight gain, NR chloride in chow from 12 weeks before mating through weaning; format: in vivo; settings: female mice, NC+NR vs NC
# Description: Mice are a widely used model of human metabolism because they are capable of recapitulating many aspects of human health. […] Therefore, mice were used in a series of in vivo experiments to evaluate whether maternally supplemented NR has the ability to improve maternal and/or neonatal health and development. Specifically, it was asked whether addition of NR chloride (3 g/kg of chow) to the diet of female mice would alter their health during and after pregnancy and whether this administration would produce any beneficial effects on the pups.
# Female C57BL/6N mice were raised in 12 hour light:dark cycles on Teklad 2920X chow (NC). For 12 weeks prior to mating with a single C57BL/6N male, females were on either NC (n=4) or NC+NR (n=4). Females were maintained on the same diet through gestation and weaning, which was at 21 days after birth.
# [4] = Body composition of adult offspring; format: in vivo, mice; settings: 90 days old
# Experimental: FIGS. 23A-C. 69 days after their mother's intervention, 90 day-old adult offspring of NR-supplemented mothers have less fat mass. The order of the bars from left to right are: males of normal chow (NC) mothers (white with light grey outline), followed by males of NR-supplemented mothers (filled light grey), followed by females of NC mothers (white with dark grey outline), followed by females of NR-supplemented mothers (filled dark grey). At 90 days old, body composition analysis was performed on the mice. […] There is no effect on the total amount of lean mass (23C). Particularly because the maternal intervention produced somewhat bigger weanlings with more fat and lean mass, the protection against age-induced weight gain was unanticipated.
# [5] = Dark/light chamber test of offspring; format: in vivo, mice
# Description: FIGS. 20A-C. […] The order of the bars from left to right are: males of normal chow (NC) mothers (white with light grey outline), followed by males of NR-supplemented mothers (filled light grey), followed by females of NC mothers (white with dark grey outline), followed by females of NR-supplemented mothers (filled dark grey). It was considered interesting that males and female adults of NR-supplemented mothers maintain distinct physical advantages into adulthood on the basis of the mother's micronutrition. […] This could be interpreted either as a simple increase in activity and/or a less anxious state of being.
# [6] = Balance beam test of offspring; format: in vivo, mice; settings: 85 days old male and female offspring
# Description: FIGS. 22A-C. 64 days after their mother's intervention, 85-day-old adults of NR-supplemented mothers have better performance on a balance beam. They cross a beam balance faster (untrained); they slip fewer times; and they almost never grip the beam with their tail. […] The order of the bars from left to right are: males of normal chow (NC) mothers (white with light grey outline), followed by males of NR-supplemented mothers (filled light grey), followed by females of NC mothers (white with dark grey outline), followed by females of NR-supplemented mothers (filled dark grey). The improved physical functions of adult offspring of NR-supplemented mothers were not confined to advantages in making less anxious choices about where to move in space, light and dark. At 85 days old, when mice were again 64 days past their mother's intervention—again all mice were on NC show for 64 days—their untrained ability to cross a balance beam was tested. […] This was not anticipated.
# [7] = supplementing post-gestational mothers
compound,measurement,setting,value
"NC(=O)c1ccc[n+]([C@@H]2O[C@H](CO)[C@@H](O)[C@H]2O)c1 [NR, nicotinamide riboside]",phosph-mTOR in mammary,mTOR pathway,higher level
same,physical activity in open field test,"[1]; 15 days of age, first 5 minutes",much more physically active
same,time in the center of the open field test,"[1]; 15 days of age, males, middle 5 minute epoch",significant amount of time in the center
same,time in the center of open field test,[1]; 70 day-old adult males,less time in the center
same,immobile time in open field test,[1]; 70 day-old adults,tendency toward less immobile time
same,speed in open field test,[1]; 70 day-old adults,move faster
same,distance covered in open field test,"[1]; 70 day-old adults, 49 days after mother's intervention",cover more distance
same,concentration of carbohydrate in the milk,[2]; NR-supplemented mothers,normal
same,concentration of fat in the milk,[2]; NR-supplemented mothers,normal
same,concentration of protein in the milk,[2]; NR-supplemented mothers,normal
same,milk produced vs non-supplemented mothers,[2]; [7],approximately 2 fold
same,milk production,[2]; [7],large increase
same,maternal body fat at the time of weaning,[3],tended to have lower body fat
same,weight gain from the day of mating to the day of weaning,[3]; NR chloride 3 g/kg of chow,protected from this weight gain
same,total amount of lean mass of adult offspring,[4],no effect
same,body size of adult offspring,[4]; male offspring,slightly smaller
same,adipose tissue of adult offspring,"[4]; males and females, 69 days after mother's intervention",less adipose tissue
same,time in the light,[5]; 75 day-old female offspring,spend more time in the light
same,time in the light chamber of a dark/light chamber,"[5]; 75 days of age, offspring of NR-supplemented mothers",more willing to spend time in the light chamber
same,slips on balance beam,[6],fewer slips
same,time to cross a balance beam (untrained),[6],cross faster
same,use of tail to grip the balance beam,[6],virtually no use of their tails
